{
  "source": "patent US9480703B2",
  "about": "“Method and composition of glycosaminoglycans in sickle cell and vascular disorders” (priority 2013, dated 2016)",
  "key": {"aPTT in dosed mice": {"experiment": "aPTT in dosed mice", "assay_type": "in vivo", "settings": "subcutaneous, SNACH 0.1-40 mg/Kg, tinzaparin 0.1-5.0 mg/Kg"}, "[1]": {"system": "platelet/fibrin clot dynamics", "experiment": "Thrombelastography (TEG), cup with or without HUVEC coating", "settings": "re-calcified citrated whole blood", "procedure": "Thrombelastography (TEG) was performed in either citrated whole blood after re-calcification. The blood samples were mixed with 3.8% tri-sodium citrate solution (one part citrate solution to 9 parts blood) as anticoagulant. The citrated whole blood was re-calcified by adding 0.4 ml isotonic calcium chloride solution. An aliquot of 0.36 ml of the re-calcified whole blood was transferred to the pre-warmed cup (Coated with monolayer of HUVEC or not) of the thrombelastograph. The following measurements were the standard variables of TEG: (i) Reaction time (R): the time from sample placement in the cup until onset of clotting (defined as amplitude of 1 mm). This represents the rate of initial fibrin formation; (ii) Maximum amplitude (MA): greatest amplitude on the TEG trace, wherein MA represents the absolute strength of the fibrin clot and is a direct function of the maximum dynamic strength of fibrin and platelets."}, "NFkB": {"system": "NFkB", "experiment": "NF-KB luciferase reporter assay", "assay_type": "cell-based", "settings": "NF-KB Luciferase Reporter Hela Stable cells, 1 μL, 10 μL and 100 μL, two hours", "procedure": "The Luciferase Assay System was purchased from Promega (Madison, Wis., USA). NF-KB Luciferase Reporter Hela Stable cells were seeded at 10^4 cells/well in 96-well plate and incubated for 24 hours. Then, growth media was removed. Next, SNACH, tinzaparin or Poly-Arginine NPs were added at concentrations of 1 μL, 10 μL and 100 μL in triplicate and incubated at 36° C. for two hours. After two hours, cells were washed with PBS. Lysis buffer was prepared following a generic protocol. 0.5 mL of lysis buffer was mixed with 2 mL of PBS. Next, the lysis buffer's solution was added to each well. Afterward, the 96-well plate was rocked several times using a shaker. Cells and liquid were collected for centrifugation at 1200×g for 5 minutes at 4° C. The supernatant was removed and stored at −80° C. One week later, the 96-well plate was placed in the luminometer containing 20 μL of lysis buffer and 100 μL of luciferase assay reagent/well. The light was measured for a period of 10 seconds with a delay time of 2 seconds."}, "[2]": {"system": "adhesion of sickle RBCs to endothelial cells (HUVECs)", "experiment": "Static adhesion assay of PKH67-labeled sickle RBCs on TNF-α-treated HUVECs", "assay_type": "cell-based, human", "settings": "HUVECs treated with TNF-α 10 ng/ml; PSI 10 μg/ml, LMWH & SNACH 40 μg/ml", "procedure": "Using gelatin-coated culture flasks, HUVEC were cultured in EGM complete media supplemented with 2 ml bovine brain extract (BBE), and passaged when 80% confluent using trypsin/EDTA solution according to the manufacturers' instructions. Cells from passages 2 to 6 were used for adhesion assay experiments. Cells were sub-cultured in a 96-well plate pre-coated with collagen with a number of 20,000 cells per well, and were left for 24 hours at 37° C. in a CO2 (5%) incubator to form a confluent monolayer.\nNormal and sickle blood samples were collected in EDTA tubes from the antecubital vein of healthy volunteers and homozygous sickle cell patients, respectively. […] Packed RBCs were washed once with PBS, and counted using a CBC analyzer. […]\nAfter HUVECs formed a confluent monolayer in the plate's wells, the experiment was designed to include five groups in […]: medium only (negative control), TNF-α only (positive control), or TNF-α with the treatment compounds: LMWH, SNACH, and PSI. […] Non-adherent RBCs were removed with PBS wash, and then 150 μl of complete medium were added for plate reading.\nIn order to quantitate endothelial-adherent RBCs by the fluorescence plate reader, serial two-fold dilutions of PKH67-labeled RBC samples were prepared from 2×10^6 to 0.16×10^6 RBCs/well. […] fluorescence was detectable with as few as 10^4 RBCs. […]"}, "ICAM-1": {"system": "ICAM-1", "experiment": "ICAM-1 levels in plasma of transgenic sickle cell mice", "assay_type": "in vivo", "settings": "daily subcutaneous treatment for 7 days, LMWH 5 mg/kg, SNACH (NACH) 20 mg/kg, PSI-14 10 mg/kg", "text": "(§1) Transgenic SCD model mice (stock #013071) of aged-matched female were obtained from The Jackson Laboratory (Bar Harbor, Me.) in addition to wild mice as controls. Genetically, transgenic mice were designed with the human hemoglobin gamma (^Ay) gene and the human sickle hemoglobin beta (β^S) gene replacing the endogenous mouse major and minor β-globin.\n(§2) Each category of mice (wild or SCD) was divided into three groups. Basal blood samples were taken by retro orbital venipuncture under anesthesia with citrated micro-hematocrit tubes, before the treatment administration. The three groups in each category were treated subcutaneously with LMWH (5 mg/kg), SNACH (20 mg/kg), and PSI (10 mg/kg). Compounds were administered daily for 7 days, and follow up blood samples were drawn daily after 1 hour of treatment administration. Immediately after collection, blood was centrifuged at 800×g for 5 minutes and plasma was collected and stored at −80° C.\nLevels of adhesion biomarker ICAM-1 were measured in mice plasma using the Bio-Plex 200 systems. Assay kit (171-304080M) was obtained from Bio-Rad (Hercules, Calif.) and the experiment was conducted following the provided instructions. The assay principle is based on the concept of sandwich ELISA where magnetic beads are covalently bound to the capture antibodies that react to the targeted biomarker. […]"}, "[3]": {"experiment": "Mortality of treated SCD mice", "assay_type": "in vivo", "settings": "LMWH 5 mg/kg daily, % of the group's mice", "procedure": "as §2"}, "Bleeding time in mice": {"experiment": "Bleeding time in mice", "assay_type": "in vivo"}, "factor Xa": {"system": "factor Xa", "experiment": "Anti-Xa in dosed mice", "assay_type": "in vivo", "settings": "subcutaneous, SNACH 0.1-40 mg/Kg, tinzaparin 0.1-5.0 mg/Kg"}, "[4]": {"system": "endogenous pathway of coagulation", "experiment": "aPTT in citrated plasma", "settings": "SNACH 1-10 uM", "procedure": "To 0.1 ml of citrated plasma 0.1 ml of human placenta lipid is added and the mixture is incubated for 2 min at 37° C. The coagulation process is initiated by the addition of 0.1 ml 25 mM calcium chloride and the time to clot formation is determined. The aPTT measures effects on the endogenous pathway of coagulation."}, "P-selectin": {"system": "P-selectin", "experiment": "P-selectin levels in plasma of transgenic sickle cell mice", "assay_type": "in vivo", "settings": "daily subcutaneous treatment for 7 days, LMWH 5 mg/kg, SNACH (NACH) 20 mg/kg", "text": "as §1, §2"}},
  "data": [
    {"substance": "tinzaparin [LMWH]", "values": [
      {"measurement": "aPTT", "setting": "aPTT in dosed mice", "value": "increase in aPTT"},
      {"measurement": "platelet/fibrin clot dynamics (TEG)", "setting": "[1]; absence of endothelial cell coating of cup", "value": "suppression of platelet/fibrin clot dynamics"},
      {"measurement": "platelet/fibrin clot dynamics (TEG)", "setting": "[1]; presence of endothelial cell (HUVEC) coating of cup", "value": "suppression of platelet/fibrin clot dynamics"},
      {"measurement": "NFkB activation", "setting": "NFkB", "value": "significant concentration-dependent suppression of NFkB activation"},
      {"measurement": "adhesion of sickle RBCs to the endothelial layer compared to TNF-α only (positive control)", "setting": "[2]", "value": "did not show a decrease in the adhesion that could be considered statistically significant"},
      {"measurement": "ICAM-1 levels in plasma at multiple time points", "setting": "ICAM-1", "value": "showed a decrease only on the first and third days of treatment"},
      {"measurement": "mortality rate (bleeding complications)", "setting": "[3]", "value": 75, "unit": "%"},
      {"measurement": "bleeding time", "setting": "Bleeding time in mice; subcutaneous, SNACH 0.1-40 mg/Kg, tinzaparin 0.1-5.0 mg/Kg", "value": "maximal increase in bleeding time"},
      {"measurement": "finding at site of injection", "setting": "Bleeding time in mice; tinzaparin 0.1-5.0 mg/Kg subcutaneously", "value": "browsing at site of injection"},
      {"measurement": "anti-Xa", "setting": "factor Xa", "value": "inhibition of factor Xa"},
      {"measurement": "effect on aPTT", "setting": "[4]", "value": "concentration dependent increase in aPTT"},
      {"measurement": "decrease of P-selectin levels in plasma", "setting": "P-selectin", "value": "~15", "unit": "%"}
    ]}
  ]
}
